Results: the supplement of paper PMC10307832

Columns and labels:
Experiment in all cases: relative viability (nuclei count vs DMSO), 5 days (fraction); higher = more cells survive
VX-11e + Foretinib = compound: CC1=CN=C(N=C1C2=CNC(=C2)C(=O)N[C@H](CO)C3=CC(=CC=C3)Cl)NC4=C(C=C(C=C4)F)Cl [VX-11e] + COc1cc2c(Oc3ccc(NC(=O)C4(C(=O)Nc5ccc(F)cc5)CC4)cc3F)ccnc2cc1OCCCN1CCOCC1 [Foretinib] (partner 0.25 µM)
In short: (§1)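 Relative viability is defined as nuclei in treated wells over nuclei in vehicle wells. Duplicate plates were run and medians reported. Lung cancer cell lines in 1536-well plates were dosed by pin tool one day after seeding, with one drug or with a fixed anchor-drug dose plus five library-drug doses (not always all listed) in √10 steps, and nuclei were counted after 5 days.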

VX-11e + AZD7762 = compound: CC1=CN=C(N=C1C2=CNC(=C2)C(=O)N[C@H](CO)C3=CC(=CC=C3)Cl)NC4=C(C=C(C=C4)F)Cl [VX-11e] + NC(=O)Nc1cc(-c2cccc(F)c2)sc1C(=O)N[C@H]1CCCNC1 [AZD7762] (partner 0.2 µM)
In short: as §1

VX-11e + Vorinostat = compound: CC1=CN=C(N=C1C2=CNC(=C2)C(=O)N[C@H](CO)C3=CC(=CC=C3)Cl)NC4=C(C=C(C=C4)F)Cl [VX-11e] + O=C(CCCCCCC(=O)Nc1ccccc1)NO [Vorinostat] (partner 1 µM)
In short: as §1

VX-11e + Pictilisib = compound: CC1=CN=C(N=C1C2=CNC(=C2)C(=O)N[C@H](CO)C3=CC(=CC=C3)Cl)NC4=C(C=C(C=C4)F)Cl [VX-11e] + CS(=O)(=O)N1CCN(Cc2cc3nc(-c4cccc5[nH]ncc45)nc(N4CCOCC4)c3s2)CC1 [Pictilisib] (partner 1 µM)
In short: as §1

| Cell Line | relative viability (VX-11e + Foretinib; first compound 0.04 µM) | relative viability (VX-11e + Foretinib; first compound 0.1265 µM) | relative viability (VX-11e + Foretinib; first compound 0.4 µM) | relative viability (VX-11e + Foretinib; first compound 1.265 µM) | relative viability (VX-11e + Foretinib; first compound 4 µM) | relative viability (VX-11e + AZD7762; first compound 0.04 µM) | relative viability (VX-11e + AZD7762; first compound 0.1265 µM) | relative viability (VX-11e + AZD7762; first compound 0.4 µM) | relative viability (VX-11e + AZD7762; first compound 1.265 µM) | relative viability (VX-11e + AZD7762; first compound 4 µM) | relative viability (VX-11e + Vorinostat; first compound 0.04 µM) | relative viability (VX-11e + Vorinostat; first compound 0.1265 µM) | relative viability (VX-11e + Vorinostat; first compound 0.4 µM) | relative viability (VX-11e + Vorinostat; first compound 1.265 µM) | relative viability (VX-11e + Vorinostat; first compound 4 µM) | relative viability (VX-11e + Pictilisib; first compound 0.04 µM) | relative viability (VX-11e + Pictilisib; first compound 0.1265 µM) | relative viability (VX-11e + Pictilisib; first compound 0.4 µM) | relative viability (VX-11e + Pictilisib; first compound 1.265 µM) | relative viability (VX-11e + Pictilisib; first compound 4 µM) |
| --- | --- | --- | --- | --- | --- | --- | --- | --- | --- | --- | --- | --- | --- | --- | --- | --- | --- | --- | --- | --- |
| A-427 | 1.14 | 1.01 | 0.835 | 0.805 | 0.342 | 0.743 | 0.641 | 0.633 | 0.566 | 0.438 | 0.868 | 0.928 | 1.01 | 0.89 | 0.504 | 0.454 | 0.468 | 0.535 | 0.422 | 0.154 |
| NCI-H2085 | 0.973 | 0.951 | 0.725 | 0.835 | 0.679 | 0.853 | 0.975 | 0.829 | 0.887 | 0.642 | 0.826 | 0.707 | 0.689 | 0.449 | 0.584 | 0.361 | 0.51 | 0.441 | 0.452 | 0.357 |
| NCI-H1666 | 0.957 | 0.853 | 0.87 | 0.692 | 0.546 | 0.803 | 0.832 | 0.715 | 0.732 | 0.699 | 1.08 | 0.953 |  | 0.992 | 0.798 | 0.511 | 0.406 | 0.367 | 0.336 | 0.294 |
| LCLC-97TM1 | 0.955 | 0.811 | 0.826 | 0.455 | 0.332 | 0.259 | 0.172 | 0.23 | 0.175 | 0.14 | 0.765 | 0.718 | 0.758 |  | 0.149 | 0.137 | 0.138 |  | 0.143 | 0.0889 |
| NCI-H1755 | 0.925 | 0.931 | 0.905 | 0.945 | 0.598 | 0.434 | 0.333 | 0.341 | 0.513 | 0.359 | 0.795 | 0.686 | 0.782 | 0.764 | 0.598 | 0.397 | 0.337 | 0.152 | 0.357 | 0.16 |
| H3255 | 0.734 | 0.963 | 0.87 | 0.918 | 0.948 | 0.745 | 0.834 | 0.859 | 0.923 | 0.825 | 0.828 | 0.765 | 0.776 | 0.79 | 0.708 | 0.476 | 0.428 | 0.482 | 0.596 | 0.316 |
| NCI-H2087 | 1.14 | 1.06 |  | 0.81 | 0.454 | 1.51 | 1.37 |  | 1.24 | 0.583 | 0.944 | 0.644 |  | 0.495 | 0.239 | 0.778 | 0.734 | 0.271 | 0.445 | 0.273 |
| BEN |  | 0.633 | 0.966 | 0.451 | 0.557 | 0.481 | 0.635 | 0.823 | 0.634 | 0.567 | 0.572 | 0.564 | 0.55 | 0.525 | 0.504 | 0.465 | 0.533 | 0.628 | 0.392 | 0.468 |
| ABC-1 | 1.48 | 0.996 | 0.899 | 1.16 | 0.826 | 0.988 | 0.785 | 0.711 | 0.779 | 0.572 | 0.934 |  | 1.22 | 0.986 | 1.15 | 0.615 | 0.539 | 0.809 | 0.518 | 0.466 |
| HCC-366 | 1.01 | 0.876 |  | 0.851 | 0.701 | 0.429 | 0.235 |  | 0.21 | 0.16 | 0.314 | 0.332 |  | 0.105 | 0.199 | 0.159 | 0.101 | 0.15 | 0.12 | 0.081 |
| LK-2 | 1.1 | 1.3 | 1.18 | 0.643 | 0.817 | 0.299 | 0.388 | 0.326 | 0.316 | 0.294 | 0.223 | 0.323 | 0.268 | 0.297 | 0.227 |  | 0.45 | 0.562 |  | 0.337 |
| EKVX | 0.765 | 0.927 | 0.812 | 0.675 | 0.466 | 0.634 | 0.74 | 0.764 | 0.723 | 0.448 | 0.751 | 0.687 | 0.718 | 0.728 | 0.382 | 0.447 | 0.545 | 0.461 | 0.404 | 0.19 |
| NCI-H1975 | 1.02 | 0.949 | 1.01 | 1.08 | 0.46 | 0.657 | 0.721 | 0.562 | 0.57 | 0.378 | 0.736 | 0.724 | 0.664 | 0.677 | 0.465 | 0.237 | 0.278 | 0.2 | 0.222 | 0.202 |
| NCI-H1993 | 0.786 | 0.818 | 0.857 | 0.734 | 0.667 |  | 0.884 | 0.687 | 0.453 | 0.48 |  | 0.819 | 0.505 | 0.47 | 0.623 |  | 0.805 |  | 0.814 | 0.865 |
| LU99A | 0.806 | 0.729 | 0.894 | 0.805 | 0.362 | 0.244 | 0.37 | 0.142 | 0.18 | 0.195 | 0.468 | 0.469 | 0.487 | 0.274 | 0.226 | 0.285 | 0.283 | 0.385 | 0.278 | 0.155 |
| NCI-H322M | 0.924 | 0.748 | 0.981 | 0.763 | 0.659 | 0.469 | 0.726 | 0.506 | 0.514 | 0.448 | 0.763 | 0.813 | 1.13 | 0.736 | 0.64 | 0.496 |  | 0.453 | 0.439 | 0.389 |
| NCI-H2347 | 0.761 | 0.877 | 0.46 | 0.67 | 0.652 | 0.834 | 0.722 | 0.551 | 0.501 | 0.375 | 0.514 | 0.688 | 0.5 | 0.349 | 0.316 | 0.813 | 0.662 | 0.491 | 0.36 | 0.298 |
